Measured values taken from patent US7592457B2 (Korea Research Institute of Chemical Technology, priority 2004, dated 2009).
Where two headings read alike, the source gives them in different places.

Assays:
5-HT1a = biological target: T1, 5-HT1a (Homo sapiens, UniProt P08908); test: Radioligand binding, 5-HT1a ([3H]8-OH-DPAT); details: read-out: Binding affinity (Inhibition rate % at 10 μM) 5HT1a
T1 construct: purchased Euroscreen/BioSignal Packard Inc
T1 sequence (P08908 1-422): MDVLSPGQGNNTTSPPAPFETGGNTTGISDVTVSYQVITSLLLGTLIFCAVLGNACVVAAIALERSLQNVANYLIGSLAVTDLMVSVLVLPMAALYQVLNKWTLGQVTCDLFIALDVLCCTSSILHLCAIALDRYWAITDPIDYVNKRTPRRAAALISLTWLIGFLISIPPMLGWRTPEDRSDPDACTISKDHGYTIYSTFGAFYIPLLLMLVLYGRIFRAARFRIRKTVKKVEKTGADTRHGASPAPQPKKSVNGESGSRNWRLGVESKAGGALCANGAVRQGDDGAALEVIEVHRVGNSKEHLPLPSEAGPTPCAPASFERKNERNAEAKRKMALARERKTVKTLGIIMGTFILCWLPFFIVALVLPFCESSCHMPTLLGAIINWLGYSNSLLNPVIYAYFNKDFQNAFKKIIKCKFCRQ
Experimental: (§1) Radioligand bindings were performed according to the test method provided by the supplier of receptor membrane (Euroscreen/BioSignal Packard Inc.).

D1 = D1 (Homo sapiens, UniProt P21728); test: Radioligand binding for selectivity, D1; details: read-out: Binding affinity (Inhibition rate % at 10 μM) D1
5-HT2c = biological target: T2, 5-HT2c (Homo sapiens, UniProt P28335); test: Radioligand binding, 5-HT2c ([3H]Mesulergine); details: read-out: Binding affinity (Inhibition rate % at 10 μM) 5HT2c
T2 construct: purchased Euroscreen/BioSignal Packard Inc
T2 sequence (P28335 33-458): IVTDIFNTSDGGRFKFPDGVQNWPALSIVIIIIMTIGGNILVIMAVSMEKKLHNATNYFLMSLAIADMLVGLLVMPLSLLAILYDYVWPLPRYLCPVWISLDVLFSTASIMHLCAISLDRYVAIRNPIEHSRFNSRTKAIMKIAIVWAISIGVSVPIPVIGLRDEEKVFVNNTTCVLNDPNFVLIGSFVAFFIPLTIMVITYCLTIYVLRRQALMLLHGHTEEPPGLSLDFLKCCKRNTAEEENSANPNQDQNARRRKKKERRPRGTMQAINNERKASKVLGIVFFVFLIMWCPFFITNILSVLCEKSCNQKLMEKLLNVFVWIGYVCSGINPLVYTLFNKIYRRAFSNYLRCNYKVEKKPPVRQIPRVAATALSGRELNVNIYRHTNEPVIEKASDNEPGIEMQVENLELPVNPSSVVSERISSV
Experimental: as §1

hD2L receptor = biological target: T3, hD2L receptor (Homo sapiens, UniProt P14416); test: Radioligand binding, dopamine D2 ([3H]spiperone); details: read-out: Binding affinity (Inhibition rate % at 10 μM) D2
T3 construct: purchased BioSignal Packard Inc., Montreal, Canada

5-HT2a = biological target: T4, 5-HT2a (Homo sapiens, UniProt P28223); test: Radioligand binding, 5-HT2a ([3H]Ketanserin); details: read-out: Binding affinity (Inhibition rate % at 10 μM) 5HT2a
T4 construct: purchased Euroscreen/BioSignal Packard Inc
Experimental: as §1

[1] = biological target: T5, human serotonin 5-HT6 receptor (Homo sapiens, UniProt P50406); test: [3H]LSD binding at cloned 5-HT6 receptors; details: for inhibition at 10 µM: read-out: Binding affinity (Inhibition rate % at 10 μM) 5HT6; for 5-HT6 affinity compared with known selective antagonists: in words
T5 construct: made in house; host or cells: Sf21 insect cells (pBacPAK8 baculovirus vector)

hD4.2 receptor = biological target: T6, hD4.2 receptor (Homo sapiens, UniProt P21917, DEL265-296); test: Radioligand binding, dopamine D4 ([3H]YM-09151-2); details: read-out: Binding affinity (Inhibition rate % at 10 μM) D4
T6 construct: purchased BioSignal Packard Inc., Montreal, Canada
T6 sequence (P21917 with tags, fused parts or gaps DEL265-296): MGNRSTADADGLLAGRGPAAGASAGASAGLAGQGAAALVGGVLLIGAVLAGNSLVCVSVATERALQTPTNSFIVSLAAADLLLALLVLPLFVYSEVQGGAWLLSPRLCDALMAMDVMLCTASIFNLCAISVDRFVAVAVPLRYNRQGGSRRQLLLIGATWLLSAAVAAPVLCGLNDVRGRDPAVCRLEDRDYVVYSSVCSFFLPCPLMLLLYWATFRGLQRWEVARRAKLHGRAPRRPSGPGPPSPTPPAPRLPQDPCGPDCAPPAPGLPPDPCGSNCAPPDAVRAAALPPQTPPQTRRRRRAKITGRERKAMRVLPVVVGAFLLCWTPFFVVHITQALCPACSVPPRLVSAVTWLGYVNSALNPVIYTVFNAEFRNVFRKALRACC

5-HT7 = biological target: T7, 5-HT7 (Homo sapiens, UniProt P34969); test: Radioligand binding, 5-HT7 ([3H]LSD); details: read-out: Binding affinity (Inhibition rate % at 10 μM) 5HT7
T7 construct: purchased Euroscreen/BioSignal Packard Inc
Experimental: as §1

hD3 receptor = biological target: T8, hD3 receptor (Homo sapiens, UniProt P35462); test: Radioligand binding, dopamine D3 ([3H]spiperone); details: read-out: Binding affinity (Inhibition rate % at 10 μM) D3
T8 construct: purchased BioSignal Packard Inc., Montreal, Canada

[2] = [3H]LSD 1.87 nM, cloned receptor membranes, 37° C., 60 min, read-out: IC50

T5 sequence (P50406 whole entry): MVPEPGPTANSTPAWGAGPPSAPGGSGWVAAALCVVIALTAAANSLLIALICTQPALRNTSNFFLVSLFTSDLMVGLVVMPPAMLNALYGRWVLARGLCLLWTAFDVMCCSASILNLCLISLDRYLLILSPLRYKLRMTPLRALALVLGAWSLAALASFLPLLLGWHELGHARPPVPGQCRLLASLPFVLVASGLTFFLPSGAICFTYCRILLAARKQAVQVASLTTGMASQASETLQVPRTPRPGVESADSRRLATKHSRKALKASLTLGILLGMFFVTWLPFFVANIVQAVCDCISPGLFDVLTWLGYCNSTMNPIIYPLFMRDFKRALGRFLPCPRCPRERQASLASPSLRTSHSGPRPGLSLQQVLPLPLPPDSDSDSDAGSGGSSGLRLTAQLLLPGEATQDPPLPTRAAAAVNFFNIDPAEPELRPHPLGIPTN
T4 sequence (P28223 whole entry): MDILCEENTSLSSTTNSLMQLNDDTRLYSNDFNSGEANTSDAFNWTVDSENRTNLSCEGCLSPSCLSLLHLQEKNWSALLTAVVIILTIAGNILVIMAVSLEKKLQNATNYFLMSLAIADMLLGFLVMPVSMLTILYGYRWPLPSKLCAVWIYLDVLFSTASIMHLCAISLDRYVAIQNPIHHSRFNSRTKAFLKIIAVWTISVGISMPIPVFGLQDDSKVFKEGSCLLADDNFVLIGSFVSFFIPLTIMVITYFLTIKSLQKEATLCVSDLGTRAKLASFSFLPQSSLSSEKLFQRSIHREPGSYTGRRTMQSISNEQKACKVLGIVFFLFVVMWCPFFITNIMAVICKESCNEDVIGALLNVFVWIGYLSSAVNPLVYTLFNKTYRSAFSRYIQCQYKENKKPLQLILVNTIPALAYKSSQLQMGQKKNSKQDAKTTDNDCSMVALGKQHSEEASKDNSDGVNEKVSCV
T7 sequence (P34969 whole entry): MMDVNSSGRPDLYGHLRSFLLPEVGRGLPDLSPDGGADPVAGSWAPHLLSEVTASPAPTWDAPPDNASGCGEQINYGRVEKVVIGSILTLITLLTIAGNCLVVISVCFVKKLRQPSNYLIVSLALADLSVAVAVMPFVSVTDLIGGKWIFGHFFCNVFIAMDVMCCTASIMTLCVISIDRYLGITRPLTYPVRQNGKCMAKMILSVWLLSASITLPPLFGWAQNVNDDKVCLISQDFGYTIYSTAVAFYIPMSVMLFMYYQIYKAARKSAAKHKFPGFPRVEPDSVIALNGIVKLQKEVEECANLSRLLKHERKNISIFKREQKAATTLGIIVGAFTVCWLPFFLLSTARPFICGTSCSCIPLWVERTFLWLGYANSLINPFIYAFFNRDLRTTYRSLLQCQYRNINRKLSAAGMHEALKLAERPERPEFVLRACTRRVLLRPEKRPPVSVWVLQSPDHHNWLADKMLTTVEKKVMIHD
D1, sequence (P21728 whole entry): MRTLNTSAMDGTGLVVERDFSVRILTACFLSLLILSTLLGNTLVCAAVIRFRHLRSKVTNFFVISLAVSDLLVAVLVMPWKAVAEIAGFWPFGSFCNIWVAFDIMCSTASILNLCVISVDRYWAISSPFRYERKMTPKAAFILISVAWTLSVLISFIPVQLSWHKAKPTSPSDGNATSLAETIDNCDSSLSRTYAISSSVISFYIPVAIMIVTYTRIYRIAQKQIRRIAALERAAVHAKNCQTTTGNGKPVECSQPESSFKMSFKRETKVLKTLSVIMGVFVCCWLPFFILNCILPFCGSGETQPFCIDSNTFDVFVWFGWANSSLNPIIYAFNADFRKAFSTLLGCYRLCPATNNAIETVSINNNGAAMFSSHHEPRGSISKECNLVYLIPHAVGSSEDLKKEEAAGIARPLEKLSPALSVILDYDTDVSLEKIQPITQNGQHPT
T8 sequence (P35462 whole entry): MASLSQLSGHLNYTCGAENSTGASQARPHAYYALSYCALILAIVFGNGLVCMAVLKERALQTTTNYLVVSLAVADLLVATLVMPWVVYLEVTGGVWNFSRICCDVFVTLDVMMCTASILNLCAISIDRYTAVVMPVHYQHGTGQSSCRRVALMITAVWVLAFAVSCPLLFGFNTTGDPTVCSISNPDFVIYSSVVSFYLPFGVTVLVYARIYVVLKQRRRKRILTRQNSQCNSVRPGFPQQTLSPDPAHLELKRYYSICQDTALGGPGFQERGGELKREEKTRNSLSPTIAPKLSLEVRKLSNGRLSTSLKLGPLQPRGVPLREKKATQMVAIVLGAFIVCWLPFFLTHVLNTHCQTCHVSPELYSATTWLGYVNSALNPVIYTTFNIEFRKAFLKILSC
T3 sequence (P14416 whole entry): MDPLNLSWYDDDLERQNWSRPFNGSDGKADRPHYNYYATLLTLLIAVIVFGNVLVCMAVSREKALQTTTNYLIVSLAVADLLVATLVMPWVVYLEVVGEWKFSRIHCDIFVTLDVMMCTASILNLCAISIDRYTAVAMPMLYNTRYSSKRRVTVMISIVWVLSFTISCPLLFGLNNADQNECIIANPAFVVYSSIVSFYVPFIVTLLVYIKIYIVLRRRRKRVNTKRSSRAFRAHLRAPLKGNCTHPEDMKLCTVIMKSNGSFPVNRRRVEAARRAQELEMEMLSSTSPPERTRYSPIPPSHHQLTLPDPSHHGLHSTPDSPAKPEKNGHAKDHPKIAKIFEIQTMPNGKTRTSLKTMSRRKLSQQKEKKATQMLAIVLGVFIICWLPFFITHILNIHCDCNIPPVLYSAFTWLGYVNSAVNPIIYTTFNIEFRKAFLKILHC

| SMILES | inhibition at 10 µM (5-HT1a) [%] | inhibition at 10 µM (D1) [%] | inhibition at 10 µM (5-HT2c) [%] | melting point [°C] | inhibition at 10 µM (hD2L receptor) [%] | inhibition at 10 µM (5-HT2a) [%] | IC50 [1] [nM] | inhibition at 10 µM [1] [%] | inhibition at 10 µM (hD4.2 receptor) [%] | inhibition at 10 µM (5-HT7) [%] | inhibition at 10 µM (hD3 receptor) [%] | IC50 [1, 2] [nM] | 5-HT6 affinity compared with known selective antagonists [1] |
| --- | --- | --- | --- | --- | --- | --- | --- | --- | --- | --- | --- | --- | --- |
| C[C@H](NC(=O)Oc1cccc(C2(C)C(=O)Nc3cc(Cl)cc(Cl)c3C2=O)c1)c1ccccc1 (some centres unmarked) [Example 26] | 0 | 50.5 | 9.1 | 91 to 94 | 26.5 | 38.1 | 980 | 70 | 0.5 | 12.7 | 14.8 |  |  |
| COc1cc(C2(C)C(=O)Nc3ccccc3C2=O)ccc1O (centres unmarked) [Example 31, 3-(4-hydroxy-3-methoxy-phenyl)-3-methyl-1H-quinoline-2,4-dione] | 31.2 | 37.1 | 10.2 | 168 to 169 | 9.2 | 43.5 |  | 70.6 | 0 | 16.4 | 9.8 | 801 |  |
| CC1(c2ccc(O)c(O)c2)C(=O)Nc2ccccc2C1=O (centres unmarked) [Example 32, 3-(3,4-dihydroxy-phenyl)-3-methyl-1H-quinoline-2,4-dione] | 13.5 | 39 | 31.9 | 259 to 261 | 16 | 26.9 |  | 71 | 0 | 20.1 | 12.6 | 769 |  |
| COc1ccc(C2(C)C(=O)Nc3cc(OC)cc(Cl)c3C2=O)cc1 (centres unmarked) [Example 35, 5-chloro-7-methoxy-3-(4-methoxy-phenyl)-3-methyl-1H-quinoline-2,4-dione] | 52.3 | 43.1 | 16.4 | 222 to 224 | 5.1 | 20.7 |  | 69.1 | 1.7 | 22.4 | 6.4 | 1360 |  |
| CC1(c2ccc([N+](=O)[O-])cc2)C(=O)Nc2cc(Cl)ccc2C1=O (centres unmarked) [Example 37, 7-chloro-3-methyl-3-(4-nitro-phenyl)-1H-quinoline-2,4-dione] | 10.4 | 49.2 | 1.4 | 209 to 210 | 8.3 | 49.2 |  | 73.3 | 0 | 21 | 10.5 | 1000 |  |
| CC1(c2ccc(N)cc2)C(=O)Nc2cc(Cl)ccc2C1=O (centres unmarked) [Example 38, 3-(4-amino-phenyl)-7-chloro-3-methyl-1H-quinoline-2,4-dione] | 51.9 | 44.3 | 20.7 | 155 to 156 | 16.5 | 31.5 |  | 74.1 | 5.8 | 17.4 | 16.8 | 585 |  |
| CN(C)c1ccc(C2(C)C(=O)Nc3cc(Cl)cc(Cl)c3C2=O)cc1 (centres unmarked) [Example 40, 5,7-dichloro-3-(4-dimethylamino-phenyl)-3-methyl-1H-quinoline-2,4-dione] | 50.2 | 40.8 | 6.5 | 268 to 269 | 10.5 | 42.2 |  | 67.2 | 0 | 30.3 | 4.5 | 563 |  |
| CCN(CC)c1ccc(C2(C)C(=O)Nc3cc(Cl)cc(Cl)c3C2=O)cc1 (centres unmarked) [Example 42, 5,7-dichloro-3-(4-diethylamino-phenyl)-3-methyl-1H-quinoline-2,4-dione] | 6.5 | 38.7 | 13.7 | 247 to 249 | 15.7 | 16.9 |  | 69.5 | 8.5 | 10.1 | 25.3 | 15 | almost same affinities as or better affinities than known selective antagonists |
| COc1ccc(C2(C)C(=O)Nc3cc(N4CCN(C)CC4)cc(Cl)c3C2=O)cc1 (centres unmarked) [Example 46, 5-chloro-3-(4-methoxy-phenyl)-3-methyl-7-(4-methyl-piperazine-1-yl)-1H-quinoline-2,4-dione] | 25.4 | 16 | 10.7 | 201 to 202 | 30.4 | 16.5 |  | 67.1 | 7.2 | 17.8 | 16.7 | 1460 |  |
| CN1CCN(c2ccc3c(c2)NC(=O)C(C)(c2ccc(N)cc2)C3=O)CC1 (centres unmarked) [Example 50, 3-(4-amino-phenyl)-3-methyl-7-(4-methyl-piperazine-1-yl)-1H-quinoline-2,4-dione] | 6.7 | 34.1 | 15.4 | 265 to 267 | 8.2 | 21.5 |  | 74.5 | 0 | 20.5 | 50.1 | 942 |  |
| CN1CCN(c2ccc3c(c2)NC(=O)C(C)(c2ccc([N+](=O)[O-])cc2)C3=O)CC1 (centres unmarked) [Example 51, 3-methyl-7-(4-methyl-piperazine-1-yl)-3-(4-nitro-phenyl)-1H-quinoline-2,4-dione] | 44.2 | 40.9 | 20.3 | 150 to 151 | 7.4 | 26.4 |  | 73.5 | 0 | 17.5 | 13.5 | 904 |  |
| COc1cc(Cl)c2c(c1)NC(=O)C(C)(c1ccc(Br)cc1)C2=O (centres unmarked) [Example 52, 3-(4-bromo-phenyl)-5-chloro-7-methoxy-3-methyl-1H-quinoline-2,4-dione] | 7.8 | 41.5 | 20 | 239 to 240 | 9.3 | 30.6 |  | 89.6 | 0 | 8.8 | 7.4 | 73 | almost same affinities as or better affinities than known selective antagonists |
